From US20120220581A1, “IMIDAZO[1,2-b]PYRIDAZINE DERIVATIVES AND THEIR USE AS PDE10 INHIBITORS” (Janssen-Cilag, S.A., priority 2009, published 2012)
Read-outs that look alike come from different tables or passages of the source.

Assays:
[1] = target: other members of the PDE family (Homo sapiens, UniProt O76083); assay: In vitro PDE selectivity assay (SPA), other members of the PDE family (protocols in Table A); type: biochemical; conditions: hPDE9A; read-out: PDE 9A (expressed as pIC50) (converted)
How it was run: (§1)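 Inhibition of each PDE isoform was measured by scintillation proximity assay with ³H-cyclic nucleotide substrate, using incubation buffer, substrate concentration, incubation time and stop solution adapted per isoform. Compounds were tested in dose-response against 1% DMSO controls and enzyme-free blanks. IC50 came from a least-squares fit of blank-subtracted % of control versus concentration.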

[2] = target: other members of the PDE family (Homo sapiens, UniProt Q9HCR9); assay: as above; type: biochemical; conditions: hPDE11A4; read-out: PDE 11A4 (expressed as pIC50) (converted)
How it was run: as §1

[3] = target: other members of the PDE family (Homo sapiens, UniProt Q14432); assay: as above; type: biochemical; conditions: hPDE3A; read-out: PDE 3A (expressed as pIC50) (converted)
How it was run: as §1

[4] = target: other members of the PDE family (Homo sapiens, UniProt Q13946); assay: as above; type: biochemical; conditions: hPDE7A1; read-out: PDE 7A (expressed as pIC50) (converted)
How it was run: as §1

[5] = target: other members of the PDE family (Homo sapiens, UniProt O00408); assay: as above; type: biochemical; conditions: hPDE2A; read-out: PDE 2A (expressed as pIC50) (converted)
How it was run: as §1

PDE10 = target: T1, PDE10 (Rattus norvegicus, UniProt Q9QYJ6); assay: PDE10 occupancy ([3H]-MP-10, striatum); type: in vivo; conditions: rat, sc
T1 construct: from tissue; host or cells: rat brain sections, striatum (in vivo dosing, ex vivo autoradiography)
T1 sequence (Q9QYJ6 1-794): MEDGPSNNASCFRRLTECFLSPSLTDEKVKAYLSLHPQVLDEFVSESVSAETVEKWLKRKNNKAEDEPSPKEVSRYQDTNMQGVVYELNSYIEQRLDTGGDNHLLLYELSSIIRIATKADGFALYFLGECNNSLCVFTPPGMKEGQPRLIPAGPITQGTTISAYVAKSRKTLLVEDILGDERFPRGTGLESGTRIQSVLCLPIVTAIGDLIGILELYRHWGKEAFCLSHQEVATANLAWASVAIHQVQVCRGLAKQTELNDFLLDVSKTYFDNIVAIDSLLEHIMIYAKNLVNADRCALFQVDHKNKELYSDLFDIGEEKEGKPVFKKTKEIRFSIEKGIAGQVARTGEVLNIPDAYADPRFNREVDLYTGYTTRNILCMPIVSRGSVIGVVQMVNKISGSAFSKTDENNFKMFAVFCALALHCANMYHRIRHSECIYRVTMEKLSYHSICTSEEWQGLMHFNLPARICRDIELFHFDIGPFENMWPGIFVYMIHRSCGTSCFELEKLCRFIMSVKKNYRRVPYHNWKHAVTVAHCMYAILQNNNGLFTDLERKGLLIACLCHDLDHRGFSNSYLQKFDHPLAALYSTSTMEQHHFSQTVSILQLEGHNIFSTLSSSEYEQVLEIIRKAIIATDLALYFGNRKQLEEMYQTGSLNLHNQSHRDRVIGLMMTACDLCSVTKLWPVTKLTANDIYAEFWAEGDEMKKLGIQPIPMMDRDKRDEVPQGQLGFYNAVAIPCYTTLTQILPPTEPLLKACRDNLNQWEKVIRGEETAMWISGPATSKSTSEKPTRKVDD
Protocol: Dose-response or single dose experiments were performed to measure PDE10 occupancy 1 hour after subcutaneous (s.c.) or oral (p.o.) administration. Male Wistar rats (200 g) were treated by s.c. or p.o. administration of various PDE10 inhibitors. The PDE10 radioligand [^3H]-MP-10 (10 μCi/animal) was injected intravenously (i.v.) 30 minutes before sacrifice. Brains were immediately removed from the skull and rapidly frozen. Twenty μm-thick brain sections were cut using a cryostat-microtome, thaw-mounted on microscope slides and loaded in a β-imager to quantify PDE10 occupancy in the striatum.

PDE4D3 = PDE4D3 (Homo sapiens, UniProt Q08499); assay: In vitro PDE selectivity assay (SPA), PDE4D3; type: biochemical; conditions: hPDE4D3; read-out: PDE 4D3 (expressed as pIC50) (converted)
Protocol: (§2) Rat recombinant PDE10A (rPDE10A2) was expressed in Sf9 cells using a recombinant rPDE10A baculovirus construct. Cells were harvested after 48 h of infection and the rPDE10A protein was purified by metal chelate chromatography on Ni-sepharose 6FF. Tested compounds were dissolved and diluted in 100% DMSO to a concentration 100 fold of the final concentration in the assay. Compound dilutions (0.4 μl) were added in 384 well plates to 20 μl of incubation buffer (50 mM Tris pH 7.8, 8.3 mM MgCl2, 1.7 mM EGTA). 10 μl of rPDE10A enzyme in incubation buffer was added and the reaction was started by addition of 10 μl substrate to a final concentration of 60 nM cAMP and 0.008 μCi ^3H-cAMP. The reaction was incubated for 60 minutes at room temperature. After incubation, the reaction was stopped with 20 μl of stop solution consisting of 17.8 mg/ml PDE SPA (scintillation proximity assay) beads. After sedimentation of the beads during 30 minutes the radioactivity was measured in a Perkin Elmer Topcount scintillation counter and results were expressed as cpm. For blanc values the enzyme was omitted from the reaction and replaced by incubation buffer. Control values were obtained by addition of a final concentration of 1% DMSO instead of compound. The same assay principle is applied for the measurement of the affinity of the compound for other members of the PDE family with appropriate modifications in incubation buffer, substrate concentration, incubation time and stop solution. An overview of the different protocols is presented in table A. A best fit curve is fitted by a minimum sum of squares method to the plot of % of control value substracted with blanc value versus compound concentration and the half maximal inhibitory concentration (IC50) value is derived from this curve.
(§3) The compounds of the invention are generally selective for PDE10 compared to other PDEs and there are a few that also have affinity for PDE1B1, 4D3 and 5A3.

PDE5A3 = PDE5A3 (Homo sapiens, UniProt O76074); assay: In vitro PDE selectivity assay (SPA), PDE5A3; type: biochemical; conditions: hPDE5A3; read-out: PDE 5A3 (expressed as pIC50) (converted)
Protocol: as §2, §3

[6] = target: T2, Rat recombinant PDE10A (rPDE10A2) (Rattus norvegicus, UniProt Q9QYJ6); assay: In vitro assay PDE10A (SPA, 3H-cAMP); type: biochemical
T2 construct: inferred from the Ni metal chelate purification; made in house; host or cells: Sf9 insect cells (baculovirus)
T2 sequence (Q9QYJ6 1-794): T1 sequence (Q9QYJ6 1-794)
How it was run: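 Scintillation proximity read-out (cpm) of 3H-cAMP hydrolysis after 60 min at room temperature, with enzyme-free blanks and 1% DMSO controls. Enzyme was Sf9-expressed, Ni-sepharose-purified rat rPDE10A2; substrate 60 nM cAMP with tracer, buffer Tris pH 7.8 containing MgCl2 and EGTA.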

[7] = tested on: apomorphine-induced stereotypy in rats; assay: Apomorphine-induced stereotypy in rats (APO); type: in vivo; conditions: Rattus norvegicus, ≧: active in 30% of the animals at the indicated dose, ≦: active in 60%
Protocol: Apomorphine (1.0 mg/kg, i.v.)-induced stereotypy (compulsive sniffing, licking, chewing) was scored every 5 min over the first hour after injection of apomorphine, following a 1 hour interval pre-treatment with the test compound. The score system was: (3) pronounced, (2) moderate, (1) slight, and (0) absent.

[8] = Table 4 in vitro selectivity, read-out: PDE 10A2 (expressed as pIC50) (converted)
[9] = pIC50 corresponds to the −log IC50 expressed in mol/L, read-out: PDE10A2 pIC50 (converted)
[10] = dose at which 50% of the tested animals show the effect
[11] = po, * compound not soluble, tested orally as a suspension

Chain of PDE4D3 (Q08499 1-673 isoform Q08499-2): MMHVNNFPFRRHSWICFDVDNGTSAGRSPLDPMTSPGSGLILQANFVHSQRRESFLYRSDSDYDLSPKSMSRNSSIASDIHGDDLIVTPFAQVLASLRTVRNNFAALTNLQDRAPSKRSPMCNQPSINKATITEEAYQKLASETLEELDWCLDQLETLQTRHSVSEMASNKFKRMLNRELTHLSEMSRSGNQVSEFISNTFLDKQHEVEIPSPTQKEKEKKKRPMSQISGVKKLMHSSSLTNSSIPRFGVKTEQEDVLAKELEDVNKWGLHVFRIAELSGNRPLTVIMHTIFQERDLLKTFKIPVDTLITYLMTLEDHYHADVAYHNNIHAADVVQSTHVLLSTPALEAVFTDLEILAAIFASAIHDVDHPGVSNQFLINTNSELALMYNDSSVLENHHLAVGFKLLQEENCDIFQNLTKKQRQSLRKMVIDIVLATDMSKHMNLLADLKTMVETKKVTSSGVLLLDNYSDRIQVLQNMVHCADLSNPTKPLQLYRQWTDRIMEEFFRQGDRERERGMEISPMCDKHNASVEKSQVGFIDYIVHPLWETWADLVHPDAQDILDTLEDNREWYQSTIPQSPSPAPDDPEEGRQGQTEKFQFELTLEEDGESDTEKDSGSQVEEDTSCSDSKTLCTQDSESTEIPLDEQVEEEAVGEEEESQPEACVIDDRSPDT
Chain of other members of the PDE family (Homo sapiens, UniProt Q13946) (Q13946 whole entry): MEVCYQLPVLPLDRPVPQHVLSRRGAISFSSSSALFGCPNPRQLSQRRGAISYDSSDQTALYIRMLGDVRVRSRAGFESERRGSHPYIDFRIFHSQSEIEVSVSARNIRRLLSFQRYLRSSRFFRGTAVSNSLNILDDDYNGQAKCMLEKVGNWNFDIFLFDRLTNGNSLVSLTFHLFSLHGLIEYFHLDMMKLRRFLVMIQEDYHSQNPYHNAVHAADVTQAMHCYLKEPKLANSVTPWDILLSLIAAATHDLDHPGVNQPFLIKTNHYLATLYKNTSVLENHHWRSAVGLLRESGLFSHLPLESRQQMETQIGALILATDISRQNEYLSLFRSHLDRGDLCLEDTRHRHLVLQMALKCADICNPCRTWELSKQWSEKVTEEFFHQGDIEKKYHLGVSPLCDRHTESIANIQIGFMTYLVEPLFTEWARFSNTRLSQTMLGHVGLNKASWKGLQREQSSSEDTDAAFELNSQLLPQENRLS
Chain of other members of the PDE family (Homo sapiens, UniProt O00408) (O00408 whole entry): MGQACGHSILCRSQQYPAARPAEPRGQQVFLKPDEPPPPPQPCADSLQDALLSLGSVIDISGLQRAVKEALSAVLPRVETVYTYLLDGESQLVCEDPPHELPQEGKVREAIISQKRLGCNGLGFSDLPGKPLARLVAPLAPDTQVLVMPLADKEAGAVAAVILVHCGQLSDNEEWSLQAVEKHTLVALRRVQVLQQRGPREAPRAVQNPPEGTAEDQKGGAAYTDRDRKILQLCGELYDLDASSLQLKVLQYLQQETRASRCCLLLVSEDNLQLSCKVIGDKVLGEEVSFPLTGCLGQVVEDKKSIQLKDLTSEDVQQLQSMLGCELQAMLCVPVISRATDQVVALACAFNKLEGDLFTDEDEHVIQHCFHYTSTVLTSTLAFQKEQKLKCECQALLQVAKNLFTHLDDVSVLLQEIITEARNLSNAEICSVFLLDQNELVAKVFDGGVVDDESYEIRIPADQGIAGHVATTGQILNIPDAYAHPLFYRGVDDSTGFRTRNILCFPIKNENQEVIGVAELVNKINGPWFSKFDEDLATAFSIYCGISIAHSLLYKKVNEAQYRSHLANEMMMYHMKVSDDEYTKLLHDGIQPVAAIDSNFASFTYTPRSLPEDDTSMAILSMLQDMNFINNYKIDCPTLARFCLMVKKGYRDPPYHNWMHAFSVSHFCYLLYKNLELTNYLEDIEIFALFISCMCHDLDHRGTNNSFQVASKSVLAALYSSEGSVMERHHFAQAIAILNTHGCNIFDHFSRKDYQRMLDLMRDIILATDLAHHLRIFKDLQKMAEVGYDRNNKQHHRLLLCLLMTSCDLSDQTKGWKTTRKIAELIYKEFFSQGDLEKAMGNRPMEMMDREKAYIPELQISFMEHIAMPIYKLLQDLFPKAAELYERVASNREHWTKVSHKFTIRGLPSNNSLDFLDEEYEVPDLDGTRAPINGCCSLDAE
Chain of other members of the PDE family (Homo sapiens, UniProt Q9HCR9) (Q9HCR9 whole entry): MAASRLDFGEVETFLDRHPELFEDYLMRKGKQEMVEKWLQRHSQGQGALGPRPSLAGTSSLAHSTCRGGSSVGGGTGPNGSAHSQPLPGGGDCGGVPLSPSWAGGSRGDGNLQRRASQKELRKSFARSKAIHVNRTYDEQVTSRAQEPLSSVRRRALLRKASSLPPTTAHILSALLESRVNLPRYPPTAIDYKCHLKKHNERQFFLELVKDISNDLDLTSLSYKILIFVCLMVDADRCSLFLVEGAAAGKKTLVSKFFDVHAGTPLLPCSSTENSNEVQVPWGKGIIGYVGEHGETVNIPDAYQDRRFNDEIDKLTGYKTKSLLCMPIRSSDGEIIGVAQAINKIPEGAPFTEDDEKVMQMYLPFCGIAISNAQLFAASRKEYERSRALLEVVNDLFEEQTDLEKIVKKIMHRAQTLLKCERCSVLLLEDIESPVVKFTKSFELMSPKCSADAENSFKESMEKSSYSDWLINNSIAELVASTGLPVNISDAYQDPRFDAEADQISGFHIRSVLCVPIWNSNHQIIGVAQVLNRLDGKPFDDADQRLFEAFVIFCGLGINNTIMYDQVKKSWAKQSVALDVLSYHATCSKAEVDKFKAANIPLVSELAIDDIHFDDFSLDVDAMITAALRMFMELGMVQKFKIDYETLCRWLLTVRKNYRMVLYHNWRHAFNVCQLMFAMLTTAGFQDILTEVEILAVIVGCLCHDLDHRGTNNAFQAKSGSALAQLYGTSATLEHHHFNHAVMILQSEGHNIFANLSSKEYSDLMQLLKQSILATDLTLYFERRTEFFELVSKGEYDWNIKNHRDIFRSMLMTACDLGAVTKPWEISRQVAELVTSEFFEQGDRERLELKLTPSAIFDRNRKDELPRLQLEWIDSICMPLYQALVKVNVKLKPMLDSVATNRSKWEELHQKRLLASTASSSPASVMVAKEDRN
Chain of other members of the PDE family (Homo sapiens, UniProt Q14432) (Q14432 whole entry): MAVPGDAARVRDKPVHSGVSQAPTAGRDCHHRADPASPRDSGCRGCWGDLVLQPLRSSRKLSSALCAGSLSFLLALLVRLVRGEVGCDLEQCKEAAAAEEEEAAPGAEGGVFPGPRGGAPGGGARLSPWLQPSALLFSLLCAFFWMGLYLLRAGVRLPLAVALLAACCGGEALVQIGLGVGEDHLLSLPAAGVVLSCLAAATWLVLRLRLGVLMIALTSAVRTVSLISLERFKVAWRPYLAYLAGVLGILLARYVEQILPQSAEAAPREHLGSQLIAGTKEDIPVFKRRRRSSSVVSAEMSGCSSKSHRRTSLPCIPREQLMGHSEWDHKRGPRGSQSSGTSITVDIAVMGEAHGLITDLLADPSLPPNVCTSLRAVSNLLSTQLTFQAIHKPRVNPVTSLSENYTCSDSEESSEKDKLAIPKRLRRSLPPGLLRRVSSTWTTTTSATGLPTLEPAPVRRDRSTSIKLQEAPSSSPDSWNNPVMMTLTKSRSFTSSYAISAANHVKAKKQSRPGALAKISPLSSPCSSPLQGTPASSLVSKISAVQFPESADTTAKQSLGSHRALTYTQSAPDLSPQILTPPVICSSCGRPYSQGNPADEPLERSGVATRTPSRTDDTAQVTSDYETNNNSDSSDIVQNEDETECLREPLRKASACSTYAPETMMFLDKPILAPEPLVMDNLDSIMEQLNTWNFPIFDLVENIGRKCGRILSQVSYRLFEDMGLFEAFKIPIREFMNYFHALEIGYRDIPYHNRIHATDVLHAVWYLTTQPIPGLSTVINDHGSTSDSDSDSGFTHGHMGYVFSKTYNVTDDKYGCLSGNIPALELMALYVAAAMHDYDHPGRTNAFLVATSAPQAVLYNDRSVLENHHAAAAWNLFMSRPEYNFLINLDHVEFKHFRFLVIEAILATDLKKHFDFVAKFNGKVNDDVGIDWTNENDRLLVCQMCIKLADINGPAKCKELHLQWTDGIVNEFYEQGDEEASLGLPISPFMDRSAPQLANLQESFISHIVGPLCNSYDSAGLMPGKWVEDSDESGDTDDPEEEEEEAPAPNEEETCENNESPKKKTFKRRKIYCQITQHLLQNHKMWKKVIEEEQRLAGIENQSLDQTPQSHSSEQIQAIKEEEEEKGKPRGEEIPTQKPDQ
Chain of other members of the PDE family (Homo sapiens, UniProt O76083) (O76083 whole entry, canonical isoform): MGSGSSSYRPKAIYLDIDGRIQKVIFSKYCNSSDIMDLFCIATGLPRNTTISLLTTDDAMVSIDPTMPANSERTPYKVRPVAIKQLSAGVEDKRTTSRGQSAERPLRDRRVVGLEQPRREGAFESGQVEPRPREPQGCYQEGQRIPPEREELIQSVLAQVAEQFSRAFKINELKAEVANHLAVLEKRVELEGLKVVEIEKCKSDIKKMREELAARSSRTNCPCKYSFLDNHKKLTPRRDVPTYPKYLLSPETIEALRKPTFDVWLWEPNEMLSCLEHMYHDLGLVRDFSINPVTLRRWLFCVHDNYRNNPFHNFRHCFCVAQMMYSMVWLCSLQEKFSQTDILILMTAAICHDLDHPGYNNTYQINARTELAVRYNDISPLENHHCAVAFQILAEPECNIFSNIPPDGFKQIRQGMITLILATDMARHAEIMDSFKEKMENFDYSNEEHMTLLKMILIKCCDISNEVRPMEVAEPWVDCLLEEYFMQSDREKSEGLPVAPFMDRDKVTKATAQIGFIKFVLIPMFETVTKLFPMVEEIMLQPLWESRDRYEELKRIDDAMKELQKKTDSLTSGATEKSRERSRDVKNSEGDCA

IC50 [1] [µM]	IC50 [2] [µM]	IC50 [3] [µM]	IC50 [4] [µM]	IC50 [5] [µM]	ED50 (PDE10; dose response, subcutaneous administration, read-out: PDE10 in vivo occupancy ED50 sc) [mg/kg]	IC50 (PDE4D3) [µM]	IC50 (PDE5A3) [µM]	IC50 [6, 8] [µM]	IC50 [6, 9] [µM]	receptor occupancy at 10 mg/kg (PDE10; single dose 10 mg/kg, subcutaneous, read-out: SD sc % occupancy at 10 mg/kg) [%]	Compound	ED50 [7, 10] [mg/kg]	ED50 [7, 11] [mg/kg]
> 10	> 10	> 10	> 10	> 10	2	> 10	7.94	0.0263	0.0263		COC(C)(C)Cc1ccc(-c2c(C)nc3c(N4CCOCC4)ccnn23)cn1 [compound 3, 3-[6-(2-methoxy-2-methylpropyl)-3-pyridinyl]-2-methyl-8-(4-morpholinyl)-imidazo[1,2-b]pyridazine]	0.8	
> 10	> 10	> 10	> 10	> 10		> 10	> 10	0.12	0.12	52	COCCOc1ccc(-c2c(C)nc3c(N4CCOCC4)ccnn23)cn1 [compound 16, 3-[6-(2-methoxyethoxy)-3-pyridinyl]-2-methyl-8-(4-morpholinyl)-imidazo[1,2-b]pyridazine]	3.1	
> 10	> 10	> 10	> 10	1.2		> 10	4.47	0.0437	0.0437		COC(C)(C)CCc1ccc(-c2c(C)nc3c(N4CCOCC4)ccnn23)cn1 [compound 29, 3-[6-(3-methoxy-3-methylbutyl)-3-pyridinyl]-2-methyl-8-(4-morpholinyl)-imidazo[1,2-b]pyridazine]	≥ 2.5	
> 10	> 10	> 10	> 10	> 10		> 10	> 10	0.0776	0.0776		Cc1nc2c(N3CCOCC3)ccnn2c1-c1ccc(C(C)C)nc1 [compound 32, 2-methyl-3-[6-(1-methylethyl)-3-pyridinyl]-8-(4-morpholinyl)-imidazo[1,2-b]pyridazine]	5	
> 10	> 10	> 10	> 10	> 10		> 10	> 10	0.0776	0.0776		Cc1nc2c(N3CCOCC3)ccnn2c1-c1ccc(C2CC2)nc1 [compound 33, 3-(6-cyclopropyl-3-pyridinyl)-2-methyl-8-(4-morpholinyl)-imidazo[1,2-b]pyridazine]		≥ 2.5
> 10	> 10	> 10	> 10	> 10		> 10	8.51	0.0468	0.0468		Cc1nc2c(N3CCOCC3)ccnn2c1-c1ccnc(N2CCOCC2)c1 [compound 91, 2-methyl-8-(4-morpholinyl)-3-[2-(4-morpholinyl)-4-pyridinyl]-imidazo[1,2-b]pyridazine]	1.2	
> 10	> 10	> 10	> 10	> 10		> 10	2.4	0.0955	0.0955		COCCn1cc(-c2c(C)nc3c(N4CCOCC4)cc(C)nn23)cn1 [compound 133, 3-[1-(2-methoxyethyl)-1H-pyrazol-4-yl]-2,6-dimethyl-8-(4-morpholinyl)-imidazo[1,2-b]pyridazine]	3.1	
> 10	5.37	> 10	4.9	8.13		5.5	0.589	0.105	0.105		COCCn1cc(-c2c(C)nc3c(-c4ccncc4)cc(C)nn23)cn1 [compound 134, 3-[1-(2-methoxyethyl)-1H-pyrazol-4-yl]-2,6-dimethyl-8-(4-pyridinyl)-imidazo[1,2-b]pyridazine]	5	
> 10	5.89	7.41	> 10	> 10		> 10	2.57	0.0182	0.0182		Cc1nc2c(-c3ccncc3)ccnn2c1-c1cnn(CC(F)(F)F)c1 [compound 135, 2-methyl-8-(4-pyridinyl)-3-[1-(2,2,2-trifluoroethyl)-1H-pyrazol-4-yl]-imidazo[1,2-b]pyridazine]		3.1
> 10	1.95	1.45	5.89	3.98		5.13	0.646	0.0174	0.0174		COC(C)(C)Cn1cc(-c2c(C3CC3)nc3c(-c4ccncc4)ccnn23)cn1 [compound 143, 2-cyclopropyl-3-[1-(2-methoxy-2-methylpropyl)-1H-pyrazol-4-yl]-8-(4-pyridinyl)-imidazo[1,2-b]pyridazine]	1.2	
